The values below come from ChEMBL document CHEMBL2434853, “3-(3-Butylamino-2-hydroxy-propoxy)-1-hydroxy-xanthen-9-one acts as a topoisomerase IIα catalytic inhibitor with low DNA damage” (Eur J Med Chem, 2013).

Assay [1] deals with HCT-15. Description: Cytotoxicity against human HCT15 cells after 2 days by CCK-8 assay. It counts as functional, cell-based. The following applies: HCT-15, 48 h. In general terms: Tetrazolium dyes change colour on reduction, which living cells bring about.
The test system of another assay is DU-145. Description: Cytotoxicity against human DU145 cells after 2 days by CCK-8 assay. It counts as functional, cell-based. The following applies: DU-145, 48 h.
For assay [2], the target named is T1, DNA topoisomerase 2-alpha (Homo sapiens, UniProt P11388). Description: Inhibition of human DNA topoisomerase-2alpha assessed as relaxation of supercoiled pBR322 DNA after 30 mins by agarose gel electrophoresis.
The target of assay [3] is T1, DNA topoisomerase 2-alpha. Description: Inhibition of human DNA topoisomerase-2alpha assessed as relaxation of supercoiled pBR322 DNA at 20 uM after 30 mins by agarose gel electrophoresis relative to control.
The target of assay [4] is T1, DNA topoisomerase 2-alpha. Briefly: Inhibition of human DNA topoisomerase-2alpha assessed as relaxation of supercoiled pBR322 DNA at 10 uM after 30 mins by agarose gel electrophoresis relative to control.
For another assay, the system named is HEK293. Briefly: Cytotoxicity against HEK293 cells after 2 days by CCK-8 assay. The format is functional, cell-based. The following applies: Homo sapiens, HEK293, 48 h.
Assay [5] deals with T1, DNA topoisomerase 2-alpha. Briefly: Inhibition of human DNA topoisomerase-2alpha assessed as relaxation of supercoiled pBR322 DNA at 100 uM after 30 mins by agarose gel electrophoresis relative to control.
The target of assay [6] is T2, DNA topoisomerase 1 (Homo sapiens) (UniProt P11387).
T2 sequence (whole entry): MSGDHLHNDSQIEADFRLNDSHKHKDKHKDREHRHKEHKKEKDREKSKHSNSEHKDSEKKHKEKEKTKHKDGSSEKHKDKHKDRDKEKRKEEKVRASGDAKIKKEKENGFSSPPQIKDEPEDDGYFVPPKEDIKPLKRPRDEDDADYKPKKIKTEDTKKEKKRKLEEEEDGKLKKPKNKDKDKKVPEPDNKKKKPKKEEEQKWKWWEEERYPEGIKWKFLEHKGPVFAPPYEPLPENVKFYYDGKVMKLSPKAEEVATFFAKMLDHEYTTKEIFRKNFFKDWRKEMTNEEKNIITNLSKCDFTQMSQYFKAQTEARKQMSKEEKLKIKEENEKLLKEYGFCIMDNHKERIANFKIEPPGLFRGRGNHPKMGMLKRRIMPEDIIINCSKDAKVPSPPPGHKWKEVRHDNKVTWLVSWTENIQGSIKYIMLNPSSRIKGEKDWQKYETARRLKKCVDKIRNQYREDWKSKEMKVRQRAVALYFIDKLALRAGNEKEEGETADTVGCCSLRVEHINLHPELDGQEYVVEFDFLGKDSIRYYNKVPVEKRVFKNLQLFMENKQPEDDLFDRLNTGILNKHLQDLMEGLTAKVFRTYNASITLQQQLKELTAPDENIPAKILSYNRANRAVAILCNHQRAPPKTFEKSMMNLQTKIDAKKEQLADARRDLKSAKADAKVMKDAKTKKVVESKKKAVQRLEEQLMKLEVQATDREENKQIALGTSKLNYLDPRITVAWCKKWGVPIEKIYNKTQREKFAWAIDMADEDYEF
Description: Inhibition of recombinant human DNA topoisomerase-1 assessed as relaxation of supercoiled pBR322 DNA at 20 uM after 30 mins by agarose gel electrophoresis relative to control.

For the next assay, the system named is T47D. Description: Cytotoxicity against human T47D cells after 2 days by CCK-8 assay. It counts as functional, cell-based. The following applies: 48 h.
A short description of assay [7]: Induction of pHOT1 DNA (unknown origin) intercalating activity assessed as blockade of DNA unwinding at 50 to 500 uM after 30 mins by agarose gel electrophoresis in presence of DNA topoisomerase-1.
Assay [8] relates to HCT-15. Description: Induction of DNA damage in human HCT15 cells at 10 uM after 24 hrs by comet assay. The format is functional, cell-based.
Assay [9] concerns the target T1, DNA topoisomerase 2-alpha. The following applies: 100 uM.
Description: Competitive inhibition of recombinant human DNA topoisomerase-2alpha assessed as relaxation of supercoiled pBR322 DNA at 100 uM after 30 mins by agarose gel electrophoresis in presence of 1 mM ATP relative to control
For assay [10], the target named is T1, DNA topoisomerase 2-alpha. The following applies: 100 uM. This is another data set of the same source.
Description: Competitive inhibition of recombinant human DNA topoisomerase-2alpha assessed as relaxation of supercoiled pBR322 DNA at 100 uM after 30 mins by agarose gel electrophoresis in presence of 1.5 mM ATP relative to control
For assay [11], the system named is Escherichia coli. Description: Induction of Escherichia coli pBR322 DNA intercalating activity assessed as retardation of DNA at 1 to 2.5 uM after 20 mins by agarose gel electrophoresis.
Assay [12] concerns the target T1, DNA topoisomerase 2-alpha. The following applies: 10 uM.
Description: Competitive inhibition of recombinant human DNA topoisomerase-2alpha assessed as relaxation of supercoiled pBR322 DNA at 10 uM after 30 mins by agarose gel electrophoresis in presence of 1.5 mM ATP relative to control
The target of assay [13] is T1, DNA topoisomerase 2-alpha. Description: Inhibition of human DNA topoisomerase-2alpha ATPase activity using supercoiled pUC18 DNA as substrate assessed as inorganic phosphate release at 300 uM incubated for 30 mins prior to ATP addition measured after 30 mins by malachite green phosphate assay relative to control.
In assay [14] the test system is Escherichia coli. Briefly: Induction of Escherichia coli pBR322 DNA intercalating activity assessed as retardation of DNA at 300 uM after 20 mins by agarose gel electrophoresis.
Assay [15] concerns the target T1, DNA topoisomerase 2-alpha. Briefly: Inhibition of human DNA topoisomerase-2alpha ATPase activity using supercoiled pUC18 DNA as substrate assessed as inorganic phosphate release at 400 uM incubated for 30 mins prior to ATP addition measured after 30 mins by malachite green phosphate assay relative to control.
Assay [16] addresses T1, DNA topoisomerase 2-alpha. The following applies: 20 uM.
Description: Competitive inhibition of recombinant human DNA topoisomerase-2alpha assessed as relaxation of supercoiled pBR322 DNA at 20 uM after 30 mins by agarose gel electrophoresis in presence of 1.5 mM ATP relative to control
In assay [17] the target is T1, DNA topoisomerase 2-alpha. The following applies: 10 uM. This is another data set of the same source.
Description: Competitive inhibition of recombinant human DNA topoisomerase-2alpha assessed as relaxation of supercoiled pBR322 DNA at 10 uM after 30 mins by agarose gel electrophoresis in presence of 1 mM ATP relative to control
For assay [18], the target named is T1, DNA topoisomerase 2-alpha. Briefly: Inhibition of human DNA topoisomerase-2alpha ATPase activity using supercoiled pUC18 DNA as substrate assessed as inorganic phosphate release at 200 uM incubated for 30 mins prior to ATP addition measured after 30 mins by malachite green phosphate assay relative to control.
Assay [19] concerns the target T1, DNA topoisomerase 2-alpha. The following applies: 2 uM.
Description: Competitive inhibition of recombinant human DNA topoisomerase-2alpha assessed as relaxation of supercoiled pBR322 DNA at 2 uM after 30 mins by agarose gel electrophoresis in presence of 1 mM ATP relative to control
The target in assay [20] is T1, DNA topoisomerase 2-alpha. The following applies: 2 uM. This is another data set of the same source.
Description: Competitive inhibition of recombinant human DNA topoisomerase-2alpha assessed as relaxation of supercoiled pBR322 DNA at 2 uM after 30 mins by agarose gel electrophoresis in presence of 1.5 mM ATP relative to control
The nature of assay [21]: Induction of pHOT1 DNA (unknown origin) intercalating activity assessed as blockade of DNA unwinding after 30 mins by agarose gel electrophoresis in presence of DNA topoisomerase-1.
Assay [22] has as its target T1, DNA topoisomerase 2-alpha. The following applies: 50 uM.
Description: Competitive inhibition of recombinant human DNA topoisomerase-2alpha assessed as relaxation of supercoiled pBR322 DNA at 50 uM after 30 mins by agarose gel electrophoresis in presence of 1.5 mM ATP relative to control
For assay [23], the system named is HCT-15. Briefly: Potency index, ratio of etoposide IC50 to compound IC50 for human HCT15 cells. It counts as functional.
In assay [24] the target is T1, DNA topoisomerase 2-alpha. The following applies: 20 uM. The source holds these as a separate data set.
Description: Competitive inhibition of recombinant human DNA topoisomerase-2alpha assessed as relaxation of supercoiled pBR322 DNA at 20 uM after 30 mins by agarose gel electrophoresis in presence of 1 mM ATP relative to control
Assay [25] addresses T1, DNA topoisomerase 2-alpha. The following applies: 5 uM.
Description: Competitive inhibition of recombinant human DNA topoisomerase-2alpha assessed as relaxation of supercoiled pBR322 DNA at 5 uM after 30 mins by agarose gel electrophoresis in presence of 1 mM ATP relative to control
Assay [26] addresses T1, DNA topoisomerase 2-alpha. The following applies: 50 uM. The source holds these as a separate data set.
Description: Competitive inhibition of recombinant human DNA topoisomerase-2alpha assessed as relaxation of supercoiled pBR322 DNA at 50 uM after 30 mins by agarose gel electrophoresis in presence of 1 mM ATP relative to control
Assay [27] deals with T1, DNA topoisomerase 2-alpha. The following applies: 5 uM. The source holds these as a separate data set.
Description: Competitive inhibition of recombinant human DNA topoisomerase-2alpha assessed as relaxation of supercoiled pBR322 DNA at 5 uM after 30 mins by agarose gel electrophoresis in presence of 1.5 mM ATP relative to control

Activity calls are given as the source filed them. The rule behind the calls is not given here.

T1 sequence (P11388 whole entry): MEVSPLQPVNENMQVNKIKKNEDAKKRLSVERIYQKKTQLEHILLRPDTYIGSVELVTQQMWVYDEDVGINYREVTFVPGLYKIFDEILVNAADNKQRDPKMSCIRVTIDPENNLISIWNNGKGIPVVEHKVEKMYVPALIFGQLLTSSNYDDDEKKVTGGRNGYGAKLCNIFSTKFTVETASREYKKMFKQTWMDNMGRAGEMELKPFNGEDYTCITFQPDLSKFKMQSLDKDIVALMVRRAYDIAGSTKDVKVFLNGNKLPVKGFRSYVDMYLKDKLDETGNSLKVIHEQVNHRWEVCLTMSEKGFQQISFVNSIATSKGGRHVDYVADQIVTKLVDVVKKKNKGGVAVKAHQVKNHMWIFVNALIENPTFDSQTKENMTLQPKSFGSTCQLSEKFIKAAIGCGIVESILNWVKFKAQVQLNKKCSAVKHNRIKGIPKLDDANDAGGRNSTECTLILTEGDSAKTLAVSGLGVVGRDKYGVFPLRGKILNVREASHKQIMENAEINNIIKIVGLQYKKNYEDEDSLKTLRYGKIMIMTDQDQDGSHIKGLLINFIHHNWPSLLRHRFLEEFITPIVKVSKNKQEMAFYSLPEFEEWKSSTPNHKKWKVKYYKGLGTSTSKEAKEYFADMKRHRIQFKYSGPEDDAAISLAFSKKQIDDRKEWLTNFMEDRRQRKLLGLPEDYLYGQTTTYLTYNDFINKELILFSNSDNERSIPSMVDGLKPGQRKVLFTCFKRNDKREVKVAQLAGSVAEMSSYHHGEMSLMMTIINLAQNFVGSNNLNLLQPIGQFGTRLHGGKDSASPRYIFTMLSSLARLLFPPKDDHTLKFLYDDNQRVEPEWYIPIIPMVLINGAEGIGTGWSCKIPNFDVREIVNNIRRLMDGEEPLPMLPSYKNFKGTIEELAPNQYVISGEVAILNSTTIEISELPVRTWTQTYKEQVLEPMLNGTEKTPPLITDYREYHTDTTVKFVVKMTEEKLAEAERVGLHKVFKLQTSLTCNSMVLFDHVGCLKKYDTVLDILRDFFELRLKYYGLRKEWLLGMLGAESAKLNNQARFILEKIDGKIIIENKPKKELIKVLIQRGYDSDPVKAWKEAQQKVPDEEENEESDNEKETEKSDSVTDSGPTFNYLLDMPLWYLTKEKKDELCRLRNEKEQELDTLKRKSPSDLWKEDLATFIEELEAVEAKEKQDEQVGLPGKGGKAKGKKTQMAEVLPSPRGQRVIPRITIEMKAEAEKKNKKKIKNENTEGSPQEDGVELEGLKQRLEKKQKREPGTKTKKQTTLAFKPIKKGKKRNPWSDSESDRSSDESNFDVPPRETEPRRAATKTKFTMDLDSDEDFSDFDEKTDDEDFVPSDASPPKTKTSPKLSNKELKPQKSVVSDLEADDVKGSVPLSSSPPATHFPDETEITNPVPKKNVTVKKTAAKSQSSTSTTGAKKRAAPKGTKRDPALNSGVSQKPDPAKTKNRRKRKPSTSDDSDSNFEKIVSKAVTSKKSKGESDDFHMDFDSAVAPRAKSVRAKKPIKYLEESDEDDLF

For orientation: IC50 means the concentration that inhibits the measured activity by half. As usually defined, the inhibition is the relative decrease from the control value, in per cent. In the case of `CCCCNCC(O)COc1cc(O)c2c(=O)c3cccc(OC)c3oc2c1` (configuration not stated), the IC50 in the assay with HCT-15 [1] is 9.11 µM; in the assay with DU-145 it was 3.31 µM; in assay [2], 11.2 µM; in the assay on HEK293, 1.74 µM; in the assay with T47D, 2.97 µM. Moreover, the inhibition was 68.1% in assay [3], 24.2% in assay [4], 100% in assay [5] and 0% in [6].
For `COc1cc(NS(C)(=O)=O)ccc1Nc1c2ccccc2nc2ccccc12`, in [7], the outcome was Active.
Regarding `CC[C@@]1(O)C(=O)OCc2c1cc1n(c2=O)Cc2cc3ccccc3nc2-1` [CAMPTOTHECIN], the IC50 stood at 0.42 µM with HCT-15 [1], 0.39 µM with DU-145, 0.78 µM with HEK293 and 0.3 µM in the assay with T47D.
For `CCCCCCNCC(O)COc1cc(O)c2c(=O)c3cccc(OC)c3oc2c1` (configuration not stated), the IC50 in the assay on HCT-15 [1] worked out at 6.32 µM; with DU-145, 1.79 µM; in [2], 13.8 µM; in the assay with HEK293 it was 4.53 µM; in the assay on T47D, 6.17 µM. In addition, the inhibition is 61.2% in assay [3], 0% in [4], 100% in assay [5] and 0% in assay [6].
Consider `CCCCCNCC(O)COc1cc(O)c2c(=O)c3cccc(OC)c3oc2c1` (configuration not stated), for which the concentration for half-maximal inhibition (IC50) in the assay with HCT-15 [1] was 1 µM; in the assay on DU-145 it was 0.91 µM; in assay [2] it was 13.8 µM; in the assay with HEK293, 7.22 µM; in the assay on T47D it was 9.8 µM. Further, the inhibition in assay [3] is 62.6%; in [4] it was 2%; in assay [5] it was 100%; in assay [6] it was 0%.
Regarding `CCCNCC(O)COc1cc(O)c2c(=O)c3cccc(OC)c3oc2c1` (configuration not stated), the half-inhibitory concentration (IC50) in the assay with HCT-15 [1] was 5.39 µM; in the assay with DU-145, 1.48 µM; in [2] it was 12 µM; in the assay with HEK293, 3.62 µM; with T47D, 3.33 µM. The inhibition in [3] turned out to be 64.4%; in [4], 6%; in assay [5] it was 100%; in [6] it was 0%.
For `COc1cc([C@@H]2c3cc4c(cc3[C@@H](O[C@@H]3O[C@@H]5CO[C@@H](C)O[C@H]5[C@H](O)[C@H]3O)[C@H]3COC(=O)[C@H]23)OCO4)cc(OC)c1O` [ETOPOSIDE], the half-maximal inhibitory concentration (IC50) with HCT-15 [1] amounted to 5.12 µM; in the assay on DU-145, 9.29 µM; with HEK293, 0.72 µM; with T47D, 3.42 µM. Moreover, the inhibition in assay [4] worked out at 18%; in [9], 87.6%; in [10], 82.6%. Further, in the assay on HCT-15 [8], the outcome was Active.
With `CC[n+]1c(-c2ccccc2)c2cc(N)ccc2c2ccc(N)cc21`, the outcome with Escherichia coli [11] was Active.
Turning to `CCCNCC(O)COc1cc(O)c2c(=O)c3ccccc3oc2c1` (configuration not stated), the IC50 in the assay on HCT-15 [1] was 5.49 µM; in the assay on DU-145 it was 1.98 µM; in assay [2], 10.4 µM; in the assay on HEK293 it was 4.28 µM; in the assay with T47D it was 6.49 µM. Besides, the inhibition in assay [3] amounted to 60.2%; in assay [4] it was 50.2%; in assay [5], 93.8%; in assay [6], 0%.
Consider `COc1cccc2c1C(=O)c1c(O)c3c(c(O)c1C2=O)C[C@@](O)(C(=O)CO)C[C@@H]3O[C@H]1C[C@H](N)[C@H](O)[C@H](C)O1` [DOXORUBICIN], for which the IC50 in the assay on HCT-15 [1] came out at 1.38 µM; in the assay with DU-145, 2.68 µM; with HEK293, 3.07 µM; in the assay with T47D, 0.41 µM.
In the case of `CCCCNCC(O)COc1cc(O)c2c(=O)c3ccccc3oc2c1` (configuration not stated), the concentration for half-maximal inhibition (IC50) with HCT-15 [1] is 0.78 µM; in the assay with DU-145, 1.98 µM; in assay [2], 9 µM; in the assay on HEK293 it was 3.44 µM; with T47D, 0.93 µM. The inhibition in assay [12] turned out to be 21%; in [13], 23.9%; in assay [15], 33.7%; in assay [16], 37.7%; in assay [17], 60.4%; in assay [3], 67.7%. Also, the inhibition amounted to 64% in assay [4]; 15.1% in [18]; 88.7% in assay [9]; 4% in assay [19]; 7.1% in assay [20]; 64.9% in assay [22]. Further, the inhibition in assay [5] was determined as 95.1%; in [6], 0%; in assay [24], 87.9%; in assay [25], 48.5%; in assay [10] it was 88.7%; in assay [26] it was 87.7%. Moreover, the inhibition in [27] amounted to 17.5%. The result in the assay on Escherichia coli [14] was Active. For the same molecule, the result in the assay with HCT-15 [8] was inactive. Further, the Activity result in [21] is “Dose-dependent effect”. Also, the “Ratio IC50” value in the assay with HCT-15 [23] is 6.6.
Consider `CCCCCNCC(O)COc1cc(O)c2c(=O)c3ccccc3oc2c1` (configuration not stated), for which the half-maximal inhibitory concentration (IC50) in the assay with HCT-15 [1] stood at 0.71 µM; in the assay with DU-145, 1.13 µM; in assay [2] it was 16.4 µM; with HEK293, 2.65 µM; in the assay with T47D, 1.62 µM. In addition, the inhibition was determined as 52.1% in assay [3], 0.7% in [4], 92.9% in assay [5] and 3% in assay [6].
In the case of `CCCCCCNCC(O)COc1cc(O)c2c(=O)c3ccccc3oc2c1` (configuration not stated), the half-inhibitory concentration (IC50) in the assay with HCT-15 [1] was determined as 1.53 µM; in the assay with DU-145 it was 1.15 µM; in [2], 19.7 µM; in the assay with HEK293 it was 1.45 µM; with T47D, 1.28 µM. Besides, the inhibition is 43.6% in assay [3], 0% in [4], 80.7% in [5] and 0% in assay [6].
On to `CO[C@@H]1[C@@H](OC(N)=O)[C@@H](O)[C@H](Oc2ccc3c(O)c(NC(=O)c4ccc(O)c(CC=C(C)C)c4)c(=O)oc3c2C)OC1(C)C`, for which the results for the inhibition in assay [13], in assay [15] and in assay [18] were 63.6%, 76.8% and 14.4%, respectively.
